Assay results as given in patent US9782385B2, “Artificial tears solution combination” (National Health Research Institutes, priority 2015, dated 2017).

How the values were obtained:
[1] = tested on: inflammatory cytokines (IL-1β, IL-6, IL-8, and TNF-α); assay: Gene expression experiment for inflammatory cytokines (Q-PCR) in LPS-induced HCEC; assay type: cell-based, Human; settings: LPS 500 ng/ml induced HCEC, 2 hours with test material; compared with the other groups
Method: In this experiment, firstly, cultivate the Human Corneal Epithelial Cells (HCEC) for 48 hours, then utilize Lipopolysaccharide (LPS) at concentration of 500 ng/ml to induce HCEC for 3 hours, to make it to produce inflammatory reaction. Afterwards, add in the compound of EGCG and HA to cultivate with HCEC for 2 hours. The Gene Expression Experiment to evaluate Inflammatory cytokines was conducted for 3 days, and the samples for this experiment were obtained by collecting these cells on the third day. Firstly, utilize Trizol reagent to extract Ribonucleic Acid (RNA) of these cells, and then utilize the High-Capacity cDNA Reverse Transcription Kits made by manufacturer ABi to perform Reverse Transcription […] (RT-PCR), to synthesis the complementary deoxyribonucleic acid (cDNA). Subsequently, utilize the TagManR Fast Universal Master Mix (2X) made by manufacturer ABi, to perform Quantitative Real-Time PCR (Q-PCR) on the inflammatory cytokines (IL-1β, IL-6, IL-8, and TNF-α), to detect the gene expression of the inflammation cytokines (IL-1β, IL-6, IL-8, and TNF-α).

[2] = tested on: inflammation cytokines (IL-1β, IL-6, IL-8, and TNF-α); assay: Inflammation cytokines protein expression experiment (ELISA of cornea protein); assay type: in vivo; settings: rabbit, BAC-induced dry eye, treatment twice a day for 2 weeks
Excerpt: In this experiment, firstly, a Benzalkonium Chloride (BAC) is dipped onto the eyes of a rabbit 3 times a day for 3 weeks, to induce the rabbit eyes to produce inflammation, and to cause it to have symptoms of moderate dry eye syndrome. Then, utilize various combined compounds of artificial tear solution, HA, and EGCG to proceed with treatments, twice a day for 2 weeks. Then, extract the protein from the rabbit's cornea to perform Enzyme-Linked Immunosorbent Assay (ELISA), to detect the protein expression of the inflammation cytokines (IL-1β, IL-6, IL-8, and TNF-α), and to observe and determine whether the inflammation cytokines were reduced, through treatment of various compounds of artificial tear solution, HA, and EGCG

Compound: O=C(O[C@@H]1Cc2c(O)cc(O)cc2O[C@@H]1c1cc(O)c(O)c(O)c1)c1cc(O)c(O)c(O)c1 [EGCG, Epigallocatechin gallate]
- Relative Transcription Ratios of the 4 inflammation factors (IL-1β, IL-6, IL-8, TNF-α) [1]: does have anti-inflammatory effect
- concentration of inflammatory cytokines (IL-1β, IL-6, IL-8, and TNF-α) in cornea [2]: has the anti-inflammatory effect
